We go through 2 compounds from US11179377B2, “Pharmaceutical compositions and uses thereof” (Embera NeuroTherapeutics, Inc., priority 2017, dated 2021).

Molecules are shown by their SMILES.

What all share (format): physicochemical
Series [1] in a line: Metyrapone-Oxazepam Compatibility Study, overall conclusions. How it is done: A study was conducted to assess the compatibility between oxazepam and metyrapone in a single pharmaceutical composition (e.g., single tablet unit containing both compounds).
(§1) Binary mixtures of the drug substances were prepared, stressed at 40° C./75% RH for 4 weeks and evaluated by the assay and related substances method using both analytical methods. Prototype blends containing oxazepam and metyrapone were prepared that would represent potential approaches for a single unit combination tablet with (i) one prototype using dry granulation and (ii) one prototype using wet granulation. The blends were stressed at 25° C./60% RH and at 40° C./75% RH for 4 weeks and evaluated.
The compatibility between the two compounds was evaluated as (i) neat API mixtures (1:15 and 1:30 ratios of oxazepam:metyrapone) and (ii) in prototype matrices that are representative of final forms if a simple combination tablet were to be manufactured (see Table 16). […]
Samples of API mixtures and prototype tablets (created from slugs compressed on a Carver press) were stored at 25° C./60% RH and at 40° C./75% RH in glass vials with screw caps. Samples were removed from storage after 4 weeks and analyzed for metyrapone, oxazepam and related substances using both HPLS analytical methods (Test methods A and B). […]

A short description of series [2]: Metyrapone Assay and Related Substances after 4 Weeks of Storage (HPLC Test Method B). The note with it: for Assay at 1 mo (metyrapone) / Total imps at 1 mo: metyrapone method (Test Method B). How it is done:
as §1
Accurately weigh samples into a 500 mL volumetric flask. Add approximately 1 to 2 mL of water to disintegrate. Add sample diluent, sonicate for 15 minutes, shake for 15 minutes, and then bring to volume with sample diluent and mix well. Filter this solution and dilute to an appropriate sample concentration with sample diluent, and analyze by HPLC using the chromatographic conditions below.
(§2) The compatibility between the two compounds was evaluated as (i) neat API mixtures (1:15 and 1:30 ratios of oxazepam:metyrapone) and (ii) in prototype matrices that are representative of final forms if a simple combination tablet were to be manufactured (see Table 16). These prototypes have metyrapone and oxazepam ratios representative of a 720 mg metyrapone/24 mg oxazepam dose.
(§3) One prototype was prepared using a dry granulation process while the other was prepared using a wet granulation process. In both prototypes, metyrapone was formulated intragranularly while oxazepam included extragranularly. The excipients used in each case were similar to those used on oxazepam and metyrapone minitabs formulations. The dry granulation process was facilitated through roller compaction of the intragranular components.
(§4) Samples of API mixtures and prototype tablets (created from slugs compressed on a Carver press) were stored at 25° C./60% RH and at 40° C./75% RH in glass vials with screw caps. Samples were removed from storage after 4 weeks and analyzed for metyrapone, oxazepam and related substances using both HPLS analytical methods (Test methods A and B). Different dilutions were required to appropriately analyze for metyrapone and oxazepam from the mixtures due to the large amount of metyrapone relative to oxazepam.
(§5) The compatibility of metyrapone and oxazepam was evaluated by comparing potency and impurity profiles of the following samples: • 1. Neat oxazepam API stored for 4 weeks at 25° C./60% RH and 40° C./75% RH. • 2. Neat metyrapone API stored for 4 weeks at 25° C./60% RH and 40° C./75% RH. • 3. Binary mixtures of oxazepam and metyrapone APIs at 1:15 and 1:30 ratios stored for 4 weeks at 25° C./60% RH and 40° C./75% RH. • 4. Prototype blend prepared using the wet granulation approach (metyrapone—intragranular; oxazepam—extragranular) stored for 4 weeks at 25° C./60% RH and 40° C./75% RH. • 5. Prototype blend prepared using the dry granulation approach (roller compacted metyrapone—intragranular; oxazepam—extragranular) stored for 4 weeks at 25° C./60% RH and 40° C./75% RH.
(§6) For each active pharmaceutical component, the potency and impurity values of neat API were compared with those for the binary mixtures and prototypes. Since the methods are unable to distinguish impurities from the two actives, compatibility was assessed by the increase in total impurities and decrease in potency values of the actives. The results are shown in Table 17 for oxazepam and Table 18 for metyrapone. The % peak areas for API admixtures and prototypes are proportional to the ratio of the two actives in the corresponding samples.

Series [3] is described as follows: Oxazepam Assay and Related Substances after 4 Weeks of Storage (HPLC Test Method A). The note with it: for Assay at 1 mo (oxazepam) / Total imps at 1 mo: oxazepam method (Test Method A). On the procedure: as §1
Accurately weigh samples into a volumetric flask. Add approximately 2 mL of water to disintegrate the samples. Add sample diluent, sonicate for 15 minutes, shake for 15 minutes, and then bring to volume with sample diluent and mix well. Filter the solution, dilute as needed with the sample diluent for analysis, and analyze by HPLC using the chromatographic conditions below.
as §2, §3, §4, §5, §6

Setting [4] is: 25 C. (25° C./60% RH), 4 weeks storage, Test Method B.
[5] abbreviates: 40 C. (40° C./75% RH), 4 weeks storage, Test Method B.
The mark [6] stands for this setting: 25 C. (25° C./60% RH), 4 weeks storage, Test Method A.
Where [7] appears, read: 40 C. (40° C./75% RH), 4 weeks storage, Test Method A.

As for `CC(C)(C(=O)c1cccnc1)c1cccnc1` [metyrapone neat, metyrapone], the “impact of the incompatibility on metyrapone” value in series [1] (4 weeks storage combined with oxazepam) is on record as “minimal”. For the same compound, in series [2] (setting [4]), the “% Peak area, RRT 0.27” value came to 0.14 % Peak area; the “% Peak area, RRT 0.48” value was 0.05 % Peak area; the “% Peak area, RRT 0.67” value is recorded as 0.01 % Peak area; the “% Peak area, RRT 1.00 * (Metyrapone)” value worked out at 99.44 % Peak area. Further, the “% Peak area, RRT 1.09” value in series [2] (setting [4]) came to 0.07 % Peak area. Besides, in series [2] (25 C. (25° C./60% RH)), the “Assay at 1 mo (metyrapone)” value is recorded as 100.60% and the “Total imps at 1 mo” value worked out at 0.26%. Besides, in series [2] (setting [5]), the “% Peak area, RRT 0.27” value is recorded as 0.15 % Peak area; the “% Peak area, RRT 0.48” value is listed as 0.06 % Peak area; the “% Peak area, RRT 1.00 * (Metyrapone)” value was 99.42 % Peak area; the “% Peak area, RRT 1.09” value turned out to be 0.09 % Peak area. In addition, in series [2] (40 C. (40° C./75% RH)), the “Assay at 1 mo (metyrapone)” value is recorded as 99.50% and the “Total imps at 1 mo” value turned out to be 0.30%.

As to `O=C1Nc2ccc(Cl)cc2C(c2ccccc2)=NC1O` (centres unmarked) [oxazepam neat API, oxazepam], in series [3] (setting [6]), the “% Peak area, RRT 1.00 ** (Oxazepam)” value was determined as 99.45 % Peak area; the “% Peak area, RRT 1.28” value amounted to 0.25 % Peak area; the “% Peak area, RRT 1.333” value amounted to 0.16 % Peak area. Further, in series [3] (25 C. (25° C./60% RH)), the “Assay at 1 mo (oxazepam)” value was 95.00% and the “Total imps at 1 mo” value turned out to be 0.41%. Besides, in series [3] (setting [7]), the “% Peak area, RRT 1.00 ** (Oxazepam)” value stood at 99.67 % Peak area; the “% Peak area, RRT 1.28” value stood at 0.15 % Peak area; the “% Peak area, RRT 1.329” value worked out at 0.05 % Peak area; the “% Peak area, RRT 1.333” value is reported as 0.08 % Peak area. Besides, in series [3] (40 C. (40° C./75% RH)), the “Assay at 1 mo (oxazepam)” value worked out at 93.20% and the “Total imps at 1 mo” value was 0.28%. In addition, the oxazepam degradation result in series [1] (in 4 weeks at 40° C./75% RH, combined with metyrapone (admixtures and prototypes)) is “up to 50%”.
